Measurements taken from US20240174690A1, “ANNULATED 2-AMINO-3-CYANO THIOPHENES AND DERIVATIVES FOR THE TREATMENT OF CANCER” (BOEHRINGER INGELHEIM INTERNATIONAL GMBH, priority 2021, published 2024).
Like-named read-outs stand apart in the source and are kept apart here.

Legend:
KRAS (WT)::SOS1 = KRAS (WT)::SOS1 (Homo sapiens (Human), UniProt P01116, C118S); experiment: KRAS::SOS1 AlphaScreen binding assay, KRAS WT
Method in brief: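 Compounds (up to 100 μM, eleven fivefold dilutions in duplicate) were incubated 30 min with KRAS 1-169 (10 nM, or 7.5 nM for G12C), GST-SOS1 564-1049 (5 nM for G12D/G12C, 10 nM for others) and 10 μM GDP in PBS buffer with BSA and Tween. Donor/acceptor beads were then added for 60 min at room temperature, and IC50 came from a 4-parameter fit of the AlphaScreen signal.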

GP2D cells = experiment: GP2D proliferation assay (120 h) (colorectal cancer, G12D); format: cell-based
Method in brief: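 500 cells/well in DMEM + GlutaMAX + 10% FCS, exposed to a logarithmic compound dose series (DMSO-normalized) for 120 h. Viability read by CellTiter-Glo luminescence as percent of DMSO control, with an untreated T0 read at dosing; IC50 from four-parameter non-linear regression.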

MKN1 cells = experiment: MKN1 CTG proliferation assay (120 h) (gastric cancer, wt amplified); format: cell-based; conditions: Homo sapiens
Method in brief: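 MKN1 gastric cancer cells (200–500 per well, RPMI + 10% FCS) given a logarithmic compound dose series and incubated 120 h. Viability by CellTiter-Glo luminescence as percent of DMSO controls. IC50 by four-parameter non-linear regression.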

[1] = MKN-1, assay 3, CTG 120 h, read-out: MKN1 (assay 3) IC50
[2] = MKN-1, assay 2, CTG 120 h, read-out: MKN1 (assay 2) IC50

Sequence of KRAS (WT)::SOS1 (P01116 other isoform, or with tags, fused parts or gaps C118S): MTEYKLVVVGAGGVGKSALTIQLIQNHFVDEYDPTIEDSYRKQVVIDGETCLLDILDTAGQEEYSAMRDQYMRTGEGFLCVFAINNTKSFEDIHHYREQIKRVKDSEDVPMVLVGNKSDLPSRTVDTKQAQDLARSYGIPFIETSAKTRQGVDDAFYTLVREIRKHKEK

Row | IC50 (KRAS (WT)::SOS1) | IC50 (GP2D cells) | IC50 (MKN1 cells; [1]) | IC50 (MKN1 cells; MKN-1, assay 1, CTG 120 h, read-out: MKN1 (assay 1) IC50) | IC50 (MKN1 cells; [2]) | SMILES
1 | 15 nM | 9 nM | 460 nM |  |  | C[C@H](Oc1cc(N2CC[C@H](N3CCCCC3)C2)nc(-c2noc3c2CCC[C@@]32CCCc3sc(N)c(C#N)c32)n1)[C@@H]1CCCN1C [II-12]
2 | 4 nM | 57 nM |  | 24 nM |  | CNC(=O)c1ccn(-c2cc(O[C@@H](C)[C@@H]3CCCN3C)nc(-c3noc4c3CCC[C@@]43CCCc4sc(N)c(C#N)c43)n2)n1 [II-20]
3 | 6 nM | 2 nM |  |  | 279 nM | C[C@H](Oc1cc(N2C[C@H](C)NC3(CC3)C2)nc(-c2noc3c2CCC[C@@]32CCCc3sc(N)c(C#N)c32)n1)[C@@H]1C[C@@H](F)CN1C [II-18]
4 | 6 nM | 2 nM |  |  | 510 nM | C[C@H](Oc1cc(N2CCNC3(CC3)C2)nc(-c2onc3c2CCC[C@@]32CCCc3sc(N)c(C#N)c32)n1)[C@@H]1C[C@@H](F)CN1C [I-45]

Further lines, the compound ahead of its results:

Row | SMILES | IC50 (KRAS (WT)::SOS1) | IC50 (GP2D cells) | IC50 (MKN1 cells; [1]) | IC50 (MKN1 cells; MKN-1, assay 1, CTG 120 h, read-out: MKN1 (assay 1) IC50) | IC50 (MKN1 cells; [2])
5 | C[C@H](Oc1cc(N2CCNC3(COC3)C2)nc(-c2onc3c2CCC[C@@]32CCCc3sc(N)c(C#N)c32)n1)[C@@H]1CCCN1C [I-4] | 3 nM | 1 nM | 75 nM |  | 
6 | C[C@H](Oc1cc(N2CC3CCC(C2)N3)nc(-c2noc3c2CCC[C@@]32CCCc3sc(N)c(C#N)c32)n1)[C@@H]1CCCN1C [II-34] | 8 nM | 49 nM | 453 nM |  | 
7 | C[C@H](Oc1cc(-c2ccn(C3COC3)n2)nc(-c2onc3c2CCC[C@@]32CCCc3sc(N)c(C#N)c32)n1)[C@@H]1CCCN1C [I-34] | 4 nM | 872 nM | 693 nM |  | 
8 | C[C@H](Oc1cc(N2CCN(C)C3(CC3)C2)nc(-c2onc3c2CCC[C@@]32CCCc3sc(N)c(C#N)c32)n1)[C@@H]1C[C@@H](F)CN1C [I-39] | 11 nM | 17 nM |  |  | 621 nM
